{"source": "patent US20250186436A1", "about": "(4E Therapeutics, Inc., priority 2021, published 2025)", "test": "PK study in male Sprague Dawley rats, IV 1 mg/kg and PO 10 mg/kg (Example 4)", "format": "in vivo", "conditions": "for clearance: CLp; for Vd: Vss; for concentration at 24 h: plasma; for AUC(0-t): AUClast", "key": {"[1]": {"conditions": "SD rats, single PO 10 mg/kg, 10% DMA/PG, individual animals, 10 mg/kg"}, "[2]": {"conditions": "SD rats, single PO 10 mg/kg, 10% DMA/PG, mean (n = 3)"}, "[3]": {"conditions": "male SD rats, 1 mg/kg IV, individual animals, 1 mg/kg"}, "[4]": {"conditions": "male SD rats, 1 mg/kg IV, mean (n = 3)"}, "[5]": {"conditions": "male, Sprague Dawley, rat, in vivo, iv, 1 mg/kg"}, "[6]": {"conditions": "male, Sprague-Dawley, rat, in vivo, iv, 1 mg/kg"}, "[7]": {"conditions": "male, Sprague-Dawley, rat, in vivo, po, 10 mg/kg"}}, "note": "Several values for one entry are separate records, joined by “and”; a condition that tells them apart may be missing. Identical values can stand only once. Like-named read-outs stand apart in the source and are kept apart here."}
{"molecule": "Cc1cc(Nc2cc(N)ncn2)c(=O)n2c1C(=O)NC21CCC2(CC2)CC1", "note": "[4ET-03-053, 6″-((6-Aminopyrimidin-4-yl)amino)-8″-methyl-2″H-dispiro[cyclopropane-1,1′-cyclohexane-4′,3″-imidazo[1,5-a]pyridine]-1″,5″-dione]", "values": [{"measurement": "Tlast", "setting": "SD rats, single PO 10 mg/kg, 10% DMA/PG, individual animals", "value": 24.0, "unit": "h"}, {"measurement": "AUCinf/D", "setting": "[1]", "value": "23000 kg·h/kL and 24504 kg·h/kL and 18751 kg·h/kL"}, {"measurement": "Clast", "setting": "[1]", "value": "2710 ng/mL and 2950 ng/mL"}, {"measurement": "Cmax/D", "setting": "[1]", "value": "1440 kg/kL and 1960 kg/kL and 1840 kg/kL"}, {"measurement": "F", "setting": "[1]", "value": "44.7% and 47.6% and 36.4%"}, {"measurement": "AUCinf/D", "setting": "[2]", "value": 22085, "unit": "kg·h/kL"}, {"measurement": "Cmax/D", "setting": "[2]", "value": 1747, "unit": "kg/kL"}, {"measurement": "F", "setting": "[2]", "value": 42.9, "unit": "%"}, {"measurement": "Tlast", "setting": "[2]", "value": 24.0, "unit": "h"}, {"measurement": "Tlast", "setting": "male SD rats, 1 mg/kg IV, individual animals", "value": 24.0, "unit": "h"}, {"measurement": "AUCinf", "setting": "[3]", "value": "55049 ng·h/mL and 46264 ng·h/mL"}, {"measurement": "AUCinf/D", "setting": "[3]", "value": "53103 kg·h/kL and 55049 kg·h/kL and 46264 kg·h/kL"}, {"measurement": "Clast", "setting": "[3]", "value": "302 ng/mL and 336 ng/mL"}, {"measurement": "Co", "setting": "[3]", "value": "8106 ng/mL and 7353 ng/mL and 7726 ng/mL"}, {"measurement": "AUCinf/D", "setting": "[4]", "value": 51472, "unit": "kg·h/kL"}, {"measurement": "Co", "setting": "[4]", "value": 7728, "unit": "ng/mL"}, {"measurement": "Tlast", "setting": "[4]", "value": 24.0, "unit": "h"}, {"measurement": "C0", "setting": "[5]", "value": 7730, "unit": "ng/mL"}, {"measurement": "CLp", "setting": "[5]", "value": 0.326, "unit": "mL/min/kg"}, {"measurement": "clearance", "setting": "[5]", "value": 0.33, "unit": "mL/min/kg"}, {"measurement": "Vd", "setting": "[5]", "value": 0.15, "unit": "L/kg"}, {"measurement": "half-life", "setting": "male, Sprague Dawley, rat, in vivo, iv, 1 mg/kg, t1/2", "value": 382, "unit": "min"}, {"measurement": "AUC(0-inf)", "setting": "male, Sprague Dawley, rat, in vivo, iv, 1 mg/kg, total systemic exposure (AUCinf)", "value": 51500, "unit": "ng·h/mL"}, {"measurement": "bioavailability", "setting": "male, Sprague Dawley, rat, in vivo, po, 10 mg/kg", "value": 42.9, "unit": "%"}, {"measurement": "Cmax", "setting": "male, Sprague Dawley, rat, in vivo, po, 10 mg/kg, peak plasma concentration (Cmax)", "value": 17500, "unit": "ng/mL"}, {"measurement": "half-life", "setting": "male, Sprague Dawley, rat, in vivo, po, 10 mg/kg, terminal half-life (t1/2)", "value": 546, "unit": "min"}, {"measurement": "AUC(0-inf)", "setting": "male, Sprague Dawley, rat, in vivo, po, 10 mg/kg, total systemic exposure (AUCinf)", "value": 221000, "unit": "ng·h/mL"}, {"measurement": "concentration at 24 h", "setting": "male, Sprague Dawley, rat, iv, 1 mg/kg, male SD rats, 1 mg/kg IV, at 24 h, mean (n = 3), read-out: Clast", "value": 350, "unit": "ng/mL"}, {"measurement": "concentration at 24 h", "setting": "male, Sprague Dawley, rat, po, 10 mg/kg, rats, 10 mg/kg PO, 10% DMA/PG, at 24 h, read-out: last measurable concentration", "value": 2620, "unit": "ng/mL"}, {"measurement": "AUC(0-t)", "setting": "[6]", "value": 51.1, "unit": "µg·h/mL"}, {"measurement": "clearance", "setting": "[6]", "value": 0.314, "unit": "mL/min/kg"}, {"measurement": "MRT inf", "setting": "male, Sprague-Dawley, rat, in vivo, iv, 1 mg/kg, MRTinf", "value": 7.24, "unit": "h"}, {"measurement": "Vd", "setting": "[6]", "value": 0.136, "unit": "L/kg"}, {"measurement": "AUC(0-inf)", "setting": "male, Sprague-Dawley, rat, in vivo, iv, 1 mg/kg, male SD rats, 1 mg/kg IV, individual animals, read-out: AUCinf", "value": 53100, "unit": "ng·h/mL"}, {"measurement": "AUC(0-inf)", "setting": "male, Sprague-Dawley, rat, in vivo, iv, 1 mg/kg, male SD rats, 1 mg/kg IV, mean (n = 3), read-out: AUCinf", "value": 51500, "unit": "ng·h/mL"}, {"measurement": "half-life", "setting": "male, Sprague-Dawley, rat, in vivo, iv, 1 mg/kg, t1/2", "value": 398, "unit": "min"}, {"measurement": "Tmax", "setting": "[7]", "value": 30, "unit": "min"}, {"measurement": "AUC(0-t)", "setting": "[7]", "value": 194, "unit": "µg·h/mL"}, {"measurement": "Cmax", "setting": "male, Sprague-Dawley, rat, in vivo, po, 10 mg/kg, Cmax", "value": 14400, "unit": "ng/mL"}, {"measurement": "half-life", "setting": "male, Sprague-Dawley, rat, in vivo, po, 10 mg/kg, t1/2", "value": 544, "unit": "min"}, {"measurement": "concentration at 24 h", "setting": "male, Sprague-Dawley, rat, iv, 1 mg/kg, male SD rats, 1 mg/kg IV, individual animals, read-out: Clast", "value": 411, "unit": "ng/mL"}, {"measurement": "concentration at 24 h", "setting": "male, Sprague-Dawley, rat, po, 10 mg/kg, SD rats, single PO 10 mg/kg, 10% DMA/PG, individual animals, read-out: Clast", "value": 2210, "unit": "ng/mL"}, {"measurement": "concentration at 24 h", "setting": "male, Sprague-Dawley, rat, po, 10 mg/kg, SD rats, single PO 10 mg/kg, 10% DMA/PG, mean (n = 3), read-out: Clast", "value": 2620, "unit": "ng/mL"}, {"measurement": "clinical observation after dosing", "setting": "rats, 1 mg/kg IV", "value": "lying on side and immobile with heavy breathing for about 10 min"}, {"measurement": "clinical observation after dosing", "setting": "rats, 1 mg/kg IV, 1 mg/kg", "value": "The second animal died right after a slow IV injection"}, {"measurement": "time to peak plasma concentration", "setting": "rats, 10 mg/kg PO, 10% DMA/PG", "value": "≤ 30", "unit": "m"}]}
